Values joined by “and” are separate entries in the source; they are usually repeats but may differ in a detail not shown here. Equal values may be shown once.
Tested on: amyloid precursor protein (APP) proteolysis
Experiment: Repressor Release Assay (RRA)
Type: cell-based
Details: luciferase activity over diluent control
Procedure, shortened: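 This repressor release assay monitors APP proteolysis in mammalian cells. Transfected CHO-K1 cells (pRSVO-luc plus APP-lacI) were seeded at […], treated with compound diluted in 25 mM Hepes, then incubated 36-48 hours. After replacing media with PBS and adding LucLite lysis/substrate buffer, luminescence was measured, and fold increase over diluent control was calculated.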

[1] = Conc 20 μg/mL, read-out: APPI Fold Increase
[2] = Conc 10 μg/mL, read-out: APPI Fold Increase

`O=S(=O)(NC1(CO)CCCCC1)c1ccc(Br)s1` [Example 181, 5-bromo-N-[1-(hydroxymethyl)cyclohexyl]thiophene-2-sulfonamide] was tested, and the fold induction at 20 µg/mL [1] was 2.6.
Molecule `CCCCC(CCCC)[C@@H](CO)NS(=O)(=O)c1ccc(Cl)s1` [Example 205, N-[(1S)-2-Butyl-1-(hydroxymethyl)hexyl]-5-chloro-2-thiophenesulfonamide] has a fold induction at 20 µg/mL [1] of 2.6.
`CCC(CC)[C@@H](C=O)NS(=O)(=O)c1ccc(Cl)s1` [Example 221A, 5-Chloro-N-[(S)-2-ethyl-1-formylbutyl]thiophene-2-sulfonamide] showed a fold induction at 20 µg/mL [1] of 4.9.
In the case of `CCCCCC[C@@H](CC)[C@@H](CO)NS(=O)(=O)c1ccc(Cl)s1` [Example 77A, 5-Chloro-N-[(1S,2R)-2-ethyl-1-(hydroxymethyl)octyl]thiophene-2-sulfonamide], the fold induction at 20 µg/mL [1] is reported as 3.1.
For `CC[C@H](C)[C@@H](CO)NS(=O)(=O)c1ccco1` [Example 206, N-[(1S,2S)-1-(hydroxymethyl)-2-methylbutyl]-2-furansulfonamide], the fold induction at 20 µg/mL [1] was 1.8.
For `CCC[C@H](CC)[C@@H](CO)NS(=O)(=O)c1ccc(Cl)s1` [Example 34, 5-chloro-N-[(1S,2S)-2-ethyl-1-(hydroxymethyl)pentyl]thiophene-2-sulfonamide], the fold induction at 20 µg/mL [1] was 5.9.
`CC[C@H](C)[C@H](NS(=O)(=O)c1ccc(Cl)s1)C(O)CCC1OCCCO1` (stereo partly drawn) [Example 136, 5-chloro-N-{(S)-4-(1,3-dioxan-2-yl)-2-hydroxy-1-[(S)-1-methylpropyl]butyl}thiophene-2-sulfonamide] gave a fold induction at 10 µg/mL [2] of 2.13.
`CCCCCC[C@H](CC)[C@@H](CO)NS(=O)(=O)c1ccc(Cl)s1` [Example 77B, 5-chloro-N-[(1S,2S)-2-ethyl-1-(hydroxymethyl)octyl]thiophene-2-sulfonamide] was tested, and the fold induction at 20 µg/mL [1] was 16.9.
Molecule `CCC(NC)[C@@H](CO)NS(=O)(=O)c1ccc(Cl)s1` (stereo partly drawn) [Example 79, 5-Chloro-N-[(1S)-1-(hydroxymethyl)-2-(methylamino)butyl]thiophene-2-sulfonamide] has a fold induction at 20 µg/mL [1] of 1.6.
In the case of `O=S(=O)(N[C@H](CO)CC1CCCCC1)c1ccc(Br)s1` [Example 110], the “APPI Fold Increase” value (Conc 10 μg/mL) is reported as 1.71 fold and the “APPI Fold Increase” value (Conc 20 μg/mL) is reported as 2.9 fold and 2.3 fold and 3.6 fold.
`C=CCCC(O)(CCC=C)[C@@H](NS(=O)(=O)c1ccc(Cl)s1)[C@@H](C)CC` [Example 171, N-{(S)-2-but-3-enyl-2-hydroxy-1-[(S)-1-methylpropyl]hex-5-enyl}-5-chlorothiophene-2-sulfonamide] gave a fold induction at 10 µg/mL [2] of 5.32.
For `CC[C@@H](C)[C@@H](CO)NS(=O)(=O)c1ccc(Br)s1` [Example 17], the “APPI Fold Increase” value (Conc 1 μg/mL) was 2.38 fold, the “APPI Fold Increase” value (Conc 3 μg/mL) was 3.47 fold and the “APPI Fold Increase” value (Conc 10 μg/mL) was 3.29 fold. The “APPI Fold Increase” value (Conc 20 μg/mL) was 6.1 fold and 3.5 fold.
With `C=C(C)C(O)(C(=C)C)[C@@H](NS(=O)(=O)c1ccc(Br)s1)[C@@H](C)CC` [Example 174, 5-bromo-N-{(S)-2-hydroxy-2-isopropenyl-3-methyl-1-[(S)-1-methylpropyl]but-3-enyl}thiophene-2-sulfonamide] the fold induction at 10 µg/mL [2] was 1.75.
Molecule `CC[C@@H](c1ccc(-c2ccccc2)cc1)[C@@H](CO)NS(=O)(=O)c1ccc(Br)s1` [Example 76, N-[(1S,2S)-2-[1,1′-biphenyl]-4-yl-1-(hydroxymethyl)butyl]-5-bromothiophene-2-sulfonamide] has a fold induction at 20 µg/mL [1] of 3.2.
For `CCCCCC(O)(CCCCC)[C@@H](NS(=O)(=O)c1ccc(Cl)s1)[C@@H](C)CC` [Example 163, 5-chloro-N-{(S)-2-hydroxy-1-[(S)-1-methylpropyl]-2-pentylheptyl}thiophene-2-sulfonamide], the fold induction at 10 µg/mL [2] was 3.3.
For `O=S(=O)(N[C@H](CO)C1CCC(O)CC1)c1ccc(Cl)s1` (stereo partly drawn) [Example 199A, 5-Chloro-N-[(S)-2-hydroxy-1-(4-hydroxycyclohexyl)ethyl]thiophene-2-sulfonamide], the fold induction at 20 µg/mL [1] was 2.4.
In the case of `C[C@@H](c1ccccc1)[C@@H](CO)NS(=O)(=O)c1ccc(Br)s1` [Example 66, 5-bromo-N-[(1S,2S)-1-(hydroxymethyl)-2-phenylpropyl]thiophene-2-sulfonamide], the fold induction at 20 µg/mL [1] is reported as 5.3.
`CCC(CC)[C@@H](CO)NS(=O)(=O)c1ccc(Br)s1` [Example 58, 5-bromo-N-[(1S)-2-ethyl-1-(hydroxymethyl)butyl]thiophene-2-sulfonamide] showed a fold induction at 20 µg/mL [1] of 10.
With `CCC[C@H](O)[C@@H](NS(=O)(=O)c1ccc(Br)s1)[C@@H](C)CC` [Example 192, 5-bromo-N-{(S,S)-2-hydroxy-1-[(S)-1-methylpropyl]pentyl}thiophene-2-sulfonamide] the “APPI Fold Increase” value (Conc 20 μg/mL) was 2.2 fold and 1.9 fold and 1.7 fold.
Work on `CCCCCC(NCCO)[C@@H](CO)NS(=O)(=O)c1ccc(Cl)s1` (stereo partly drawn) [Example 83, 5-chloro-N-[(1S)-2-[(2-hydroxyethyl)amino]-1-(hydroxymethyl)heptyl]-2-thiophenesulfonamide] yielded a fold induction at 20 µg/mL [1] of 1.7.
`CCC(C)C(NS(=O)(=O)c1ccc(Cl)s1)C(O)CC` (mixture of isomers) [Example 129] was tested, and the “APPI Fold Increase” value (Conc 3 μg/mL) was 1.61 fold and the “APPI Fold Increase” value (Conc 10 μg/mL) was 7.43 fold and 4.59 fold.
`CC[C@H](C)[C@@H](CO)N(Cc1cccc(Cl)c1)S(=O)(=O)c1ccc(Cl)s1` [Example 88, 5-chloro-N-(3-chlorobenzyl)-N-[(1S,2S)-1-(hydroxymethyl)-2-methylbutyl]thiophene-2-sulfonamide] gave a fold induction at 20 µg/mL [1] of 4.9.
`CC[C@H](C)[C@H](NS(=O)(=O)c1ccc(Cl)s1)C(O)C/C=C/c1ccccc1` (stereo partly drawn) [Example 161, 5-chloro-N-{(S,E)-2-hydroxy-1-[(S)-1-methylpropyl]-5-phenylpent-4-enyl}thiophene-2-sulfonamide] gave a fold induction at 20 µg/mL [1] of 2.6.
Molecule `CCCCC[C@H](C)[C@@H](CO)NS(=O)(=O)c1ccc(Cl)s1` [Example 39, 5-chloro-N-[(1S,2S)-1-(hydroxymethyl)-2-methylheptyl]thiophene-2-sulfonamide] has a fold induction at 20 µg/mL [1] of 5.7.
Molecule `CCCCC(O)[C@@H](NS(=O)(=O)c1cccs1)[C@@H](C)CC` (stereo partly drawn) [Example 143, N-{(S)-2-hydroxy-1-[(S)-1-methylpropyl]hexyl}thiophene-2-sulfonamide] has a fold induction at 10 µg/mL [2] of 1.64.
With `CCC(O)[C@@H](NS(=O)(=O)c1cccs1)[C@@H](C)CC` (stereo partly drawn) [Example 148, N-{(S)-2-hydroxy-1-[(S)-1-methylpropyl]butyl}thiophene-2-sulfonamide] the fold induction at 10 µg/mL [2] was 1.52.
For `CC[C@H](C)[C@H](NS(=O)(=O)c1ccc(Cl)s1)C(O)(c1cccc2ccccc12)c1cccc2ccccc12` [Example 172, 5-chloro-N-((S,S)-1-{hydroxy[di(1-naphthyl)]methyl}-2-methylbutyl)thiophene-2-sulfonamide], the fold induction at 10 µg/mL [2] was 2.
For `CC[C@H](C)[C@H](NS(=O)(=O)c1ccc(Cl)s1)C(C)O` (stereo partly drawn) [Example 119, 5-Chloro-N-[(S,S)-1-(1-hydroxyethyl)-2-methylbutyl]thiophene-2-sulfonamide], the fold induction at 0.3 µg/mL (Conc 0.3 μg/mL, read-out: APPI Fold Increase) was 1.54, the fold induction at 3 µg/mL (Conc 3 μg/mL, read-out: APPI Fold Increase) was 2.49 and the fold induction at 10 µg/mL [2] was 4.1.
For `COc1ccc([C@@H](C)[C@@H](CO)NS(=O)(=O)c2ccc(Cl)s2)cc1` [Example 28, 5-chloro-N-[(1S,2R)-1-(hydroxymethyl)-2-(4-methoxyphenyl)propyl]thiophene-2-sulfonamide], the fold induction at 20 µg/mL [1] was 7.
Molecule `CC[C@@H](c1ccccc1)[C@@H](CO)NS(=O)(=O)c1ccc(Br)s1` [Example 67, 5-bromo-N-[(1S,2S)-1-(hydroxymethyl)-2-phenylbutyl]thiophene-2-sulfonamide] has a fold induction at 20 µg/mL [1] of 4.7.
